According to patent US7947679B2 (priority 2002, dated 2011):

Columns and labels:
[1] = tested on: Phytophthora infestans; type: in vivo; details: 200 ppm, tomato leaf disks, preventive, assessed four days after inoculation
[2] = tested on: Botrytis cinerea; details: in vivo
[3] = tested on: Plasmopara viticola; details: in vivo

Compound: CC(C)Nc1nc2ncccc2c(Cl)c1-c1c(F)cc(F)cc1F
- melting point: 202 °C

Compound: Fc1cc(F)c(-c2c(Cl)nc3ncccc3c2N2CCOCC2)c(F)c1 [20 (1), 2-chloro-4-morpholin-4-yl-3-(2,4,6-trifluorophenyl)-[1,8]naphthyridine]
- control of disease [1]: greater than 60%

Compound: CC(C)Nc1c(-c2c(F)cc(F)cc2F)c(Cl)nc2ncccc12 [3 (1), [2-chloro-3-(2,4,6-trifluorophenyl)-[1,8]naphthyridin-4-yl]-isopropylamine]
- melting point: 193 °C
- control of disease [2]: greater than 60%

Compound: CC(C)Nc1c(-c2c(F)cc(F)cc2F)c(Cl)nc2ncc(Br)cc12 [3 (111), [6-bromo-2-chloro-3-(2,4,6-trifluorophenyl)-[1,8]naphthyridin-4-yl]-isopropylamine]
- control of disease [3]: greater than 60%
